Legend:
[1] = tested on: Drosophila; assay type: in vivo, Drosophila melanogaster
Protocol: In order to monitor fly behavior, five-day old virgin female Canton-S Drosophila melanogaster were cultured at 25° C., 50-60% humidity, 12 hr:12 hr light:dark cycle, on brewer's yeast, dark corn syrup and agar food, following procedures modified from J. Bennett and D. L. van Dyke, Dros. Inform. Serv. 46:160 (1971). Continuous, high-resolution measurement of fly behavior was achieved using an ultrasound activity monitoring system shown in FIG. 1A. Briefly, a 44 kHz standing wave was passed across an independent enclosure containing a single fly. An integrated circuit sampled a portion of each wave as a function of the transmit signal and compared it to the output from the receive signal for the same time-window. When the fly moved its mass within the field, it perturbed the standing wave and the resulting difference was counted as a movement. The output was sampled by a PC at 200 Hz, the data were summed in 2-sec bins and stored for later processing. This system detects very small movements in Drosophila's behavioral repertoire, including fine movements of the head, wings, and limbs.
To monitor rest-activity patterns in large numbers of flies, an infrared Drosophila Activity Monitoring System was used (Trikinetics; described in M. Hamblen et al., J. Neurogen. 3:249 (1986)). To validate the system, flies were visually monitored for a total of 17.75 h (n=7). The number of times the fly crossed the infrared beam was counted in 5-minute bins.
Drugs (caffeine or hydroxyzine) dissolved in food were continuously available to flies beginning in the final hour of the light period.
The increase in rest was not associated with a general impairment of fly behavior. The activity per waking minute was unchanged during the dark period (both during the first hour and the subsequent hours). The total amount of activity during the light period was also unchanged. Furthermore, responsiveness to arousing stimuli was preserved.

[2] = tested on: Drosophila; assay: Responsiveness to arousing stimuli in flies given drug; parameters: species or system Drosophila melanogaster; settings: in vivo
Protocol: In order to determine whether periods of rest are associated with increased arousal thresholds, flies were subjected to vibratory stimuli of increasing intensity (0.05 g, 0.1 g, and 6 g). In these experiments, flies were placed in glass tubes (65 mm in length, 5 mm I.D.) maintained on a hard plastic platform above a Grass speaker. The output of the speaker was controlled via a Beckman signal generator and the resulting vibration of the platform was measured with an accelerometer. Each fly received a stimulus each hour (total of 8 stimuli) of constant intensity. The behavioral state at the time of stimulus delivery and the ensuing response were videotaped and scored off-line.

[3] = tested on: Drosophila; assay: Grooming control for validating the infrared system: dusting flies; assay type: in vivo, Drosophila melanogaster; settings: flies dusted with the substance
Protocol: Additional controls were used to validate the infrared system. […] It was determined that food deprivation for 1 day increased waking by 50% in Drosophila.

Compound: Cn1c(=O)c2c(ncn2C)n(C)c1=O [caffeine]
- motor activity ([1]; drug in food from the final hour of the light period, n=36/dose): increased
- amount of rest during the dark period ([1]; drug in food from the final hour of the light period, n=36/dose, p<0.0001, FIG. 3C): decreased in a dose-dependent fashion

Compound: OCCOCCN1CCN(C(c2ccccc2)c2ccc(Cl)cc2)CC1 (centres unmarked) [hydroxyzine]
- rest during the first hour of the dark period ([1]; drug in food from the final hour of the light period, n=40/dose, FIG. 3D): increased in a dose-dependent manner
- latency to first dark period rest ([1]; drug in food from the final hour of the light period, n=40/dose, FIG. 3E): decreased
- total amount of activity during the light period ([1]; in vivo): unchanged
- responsiveness to arousing stimuli [2]: preserved

Compound: Reactive Yellow
- increase in grooming behavior [3]: 72%
- number of infrared crossings [3]: did not reduce
